Results taken from US5770611A, “Indole derivatives as 5HT1 -like agonists” (Pfizer Inc., priority 1994, dated 1998).

Tests used:
[1] = molecular target: T1, "5-HT1 -like" receptor (dog isolated saphenous vein strip) (Canis lupus familiaris, UniProt P79250); assay: contraction of isolated dog saphenous vein strip ("5-HT1 -like" receptor agonist activity); type: cell-based; details: for EC50: concentration causing 50% of the maximum contraction effected by the compound; for RELATIVE POTENCY EC50 (compound)/EC50 (5-HT): ratio to 5-HT (higher = less potent)
T1 construct: on dog isolated saphenous vein strip; from tissue; host or cells: dog isolated saphenous vein strip
T1 sequence (P79250 whole entry): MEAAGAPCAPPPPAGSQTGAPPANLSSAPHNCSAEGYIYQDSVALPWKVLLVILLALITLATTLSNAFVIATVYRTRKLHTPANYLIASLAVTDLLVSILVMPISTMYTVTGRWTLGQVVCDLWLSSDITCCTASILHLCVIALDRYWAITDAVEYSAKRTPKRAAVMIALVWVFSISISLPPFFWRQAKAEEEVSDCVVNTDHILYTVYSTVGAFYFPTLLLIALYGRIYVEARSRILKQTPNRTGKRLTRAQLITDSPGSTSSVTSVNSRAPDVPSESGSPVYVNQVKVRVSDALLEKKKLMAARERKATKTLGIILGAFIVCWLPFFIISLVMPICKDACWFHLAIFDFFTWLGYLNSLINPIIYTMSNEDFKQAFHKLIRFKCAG
Text: The following Table illustrates the in vitro activities for a range of the compounds of the invention on dog isolated saphenous vein strip. EC50 represents the concentration of compound which causes 50% of the maximum contraction effected by it.

[2] = molecular target: T1, "5-HT1 -like" receptor (dog isolated saphenous vein strip); details: antagonism of the agonist-induced contraction; cited from earlier work

Compound: CC(C)(O)CCc1ccc2[nH]cc(C[C@H]3CCCN3CC3CCCNC3=O)c2c1 (single isomer, unassigned) [Example 9A]
- EC50 [1]: 3 µM
- RELATIVE POTENCY EC50 (compound)/EC50 (5-HT) [1]: 71

Compound: CC(C)(O)CCc1ccc2[nH]cc(C[C@H]3CCCN3CC3CCCNC3=O)c2c1 (single isomer, unassigned) [Example 9B]
- EC50 [1]: 1.8 µM
- RELATIVE POTENCY EC50 (compound)/EC50 (5-HT) [1]: 78

Compound: CC(C)(O)CCc1ccc2[nH]cc(C[C@H]3CCCN3CC3CCN(Cc4ccccc4)C3)c2c1 (stereo partly drawn) [Example 1]
- EC50 [1]: 0.62 µM
- RELATIVE POTENCY EC50 (compound)/EC50 (5-HT) [1]: 11.0

Compound: CC(C)(O)CCc1ccc2[nH]cc(C[C@H]3CCCN3C[C@H]3CCCN3S(C)(=O)=O)c2c1 [Example 5, 5-(3-Hydroxy-3-methyl-1-butyl)-3-[N-(N-methane-sulphonyl-2(R)-pyrrolidinylmethyl)-2(R)-pyrrolidinylmethyl]-1H-indole]
- EC50 [1]: 0.18 µM
- RELATIVE POTENCY EC50 (compound)/EC50 (5-HT) [1]: 2.4

Compound: CSc1ccc2c(c1)C(N1CCN(C)CC1)Cc1ccccc1S2 (stereo not drawn) [methiothepin]
- block of contraction of dog saphenous vein strip [2]: This effect can be blocked by methiothepin
